From patent publication US10588317B2, “Isoxazoline-substituted benzamides and analogues as insecticides” (priority 2015, dated 2020)

Experiments:
Format in all cases: in vivo
Thrips tabaci = Thrips tabaci (onion thrips): feeding/contact activity; conditions: 144 h, application rate 200 ppm, Thrips population of mixed ages, 6 days after infestation, read-out: mortality
Protocol: (§1) Sunflower leaf discs were placed on agar in 24-well microtiter plates and sprayed with aqueous test solutions prepared from 10'000 ppm DMSO stock solutions. After drying the leaf discs were infested with a Thrips population of mixed ages. The samples were assessed for mortality 6 days after infestation.

Spodoptera littoralis [1] = test: Spodoptera littoralis (Egyptian cotton leaf worm), sprayed cotton leaf discs; conditions: foliar, 72 h, application rate 200 ppm, L1 larvae, 3 days after infestation, read-out: control (mortality, anti-feeding effect, growth inhibition)
Summary of the method: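 Five first-instar larvae placed on dried cotton leaf discs (on agar) previously sprayed with aqueous dilutions of 10'000 ppm DMSO stocks. Scored at 3 days against untreated discs for mortality, feeding inhibition and growth inhibition; any category above untreated counts as control.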

Myzus persicae = Myzus persicae (green peach aphid): feeding/contact activity; conditions: 144 h, application rate 200 ppm, aphid population of mixed ages, 6 days after infestation, read-out: mortality
Protocol: Sunflower leaf discs were placed onto agar in a 24-well microtiter plate and sprayed with aqueous test solutions prepared from 10'000 ppm DMSO stock solutions. After drying, the leaf discs were infested with an aphid population of mixed ages. The samples were assessed for mortality 6 days after infestation.

Spodoptera littoralis [2] = test: Spodoptera littoralis (Egyptian cotton leaf worm), uptake by lettuce roots from agar; conditions: 144 h, read-out: effect in at least one of the three categories (mortality, anti-feeding, or growth inhibition)
Excerpt: Test compounds were applied by pipette from 10'000 ppm DMSO stock solutions into 24-well plates and mixed with agar. Lettuce seeds were placed onto the agar and the multi well plate was closed by another plate which contained also agar. After 7 days the compound was absorbed by the roots and the lettuce grew into the lid plate. The lettuce leaves were then cut off into the lid plate. Spodoptera eggs were pipetted through a plastic stencil onto a humid gel blotting paper and the lid plate was closed with it. The samples were assessed for mortality, anti-feedant effect and growth inhibition in comparison to untreated samples 6 days after infestation.
The following compounds gave an effect of at least 80% in at least one of the three categories (mortality, anti-feeding, or growth inhibition) at a test rate of 12.5 ppm: […]

Tetranychus urticae = Tetranychus urticae (two-spotted spider mite): feeding/contact activity; conditions: 192 h, application rate 200 ppm, mixed population (mobile stages), 8 days after infestation, read-out: mortality
Protocol: as §1, with “Bean” for “Sunflower”, “discs” for “discs were placed”, “were” for “and”, “mite” for “Thrips”, “on mixed population (mobile stages) 8” for “6”

Diabrotica balteata = Diabrotica balteata (corn root worm), sprayed maize sprouts; conditions: 96 h, application rate 200 ppm, L2 larvae, 4 days after infestation, read-out: effect in at least one of the two categories (mortality or growth inhibition)
Summary of the method: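 Read-out at 4 days post-infestation: mortality and growth inhibition relative to untreated samples. Test solutions (200 ppm, from DMSO stocks) were sprayed onto agar-held maize sprouts, which after drying received 6–10 L2 larvae per well.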

Plutella xylostella = Plutella xylostella (diamond back moth), artificial diet; conditions: 120 h, application rate 200 ppm, L2 larvae, 5 days after infestation, read-out: effect in at least one of the two categories (mortality or growth inhibition)
Summary of the method: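 L2 larvae (10-15 per well) fed on compound-treated, dried artificial diet; test solutions diluted in water from 10'000 ppm DMSO stocks. Readout 5 days post-infestation as mortality or growth inhibition versus untreated diet, with at least 80% effect at 200 ppm as threshold.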

O=C(NC1CON(S(=O)(=O)C2CC2)C1)c1ccc(C2=NO[C@@](c3cc(Cl)c(F)c(Cl)c3)(C(F)(F)F)C2)cc1Cl (stereo partly drawn) [Compound A24, 2-chloro-N-(2-cyclopropylsulfonylisoxazolidin-4-yl)-4-[(5S)-5-(3,5-dichloro-4-fluoro-phenyl)-5-(trifluoromethyl)-4H-isoxazol-3-yl]benzamide]
≥ 80%: mortality at 200 ppm (Thrips tabaci) | mortality at 200 ppm (Spodoptera littoralis [1]) | mortality at 200 ppm (Myzus persicae) | percent control (mortality, anti-feedant effect or growth inhibition) at 12.5 ppm (Spodoptera littoralis [2]) | mortality at 200 ppm (Tetranychus urticae) | percent effect (mortality or growth inhibition) at 200 ppm (Diabrotica balteata) | percent effect (mortality or growth inhibition) at 200 ppm (Plutella xylostella)

CCS(=O)(=O)N1CC(NC(=O)c2ccc(C3=NO[C@@](c4cc(Cl)c(F)c(Cl)c4)(C(F)(F)F)C3)cc2Cl)CO1 (stereo partly drawn) [Compound A25, 2-chloro-4-[(5S)-5-(3,5-dichloro-4-fluoro-phenyl)-5-(trifluoromethyl)-4H-isoxazol-3-yl]-N-(2-ethylsulfonylisoxazolidin-4-yl)benzamide]
≥ 80%: mortality at 200 ppm (Thrips tabaci) | mortality at 200 ppm (Spodoptera littoralis [1]) | mortality at 200 ppm (Myzus persicae) | percent control (mortality, anti-feedant effect or growth inhibition) at 12.5 ppm (Spodoptera littoralis [2]) | mortality at 200 ppm (Tetranychus urticae) | percent effect (mortality or growth inhibition) at 200 ppm (Diabrotica balteata) | percent effect (mortality or growth inhibition) at 200 ppm (Plutella xylostella)

CCS(=O)(=O)N1CC(NC(=O)c2ccc(C3=NO[C@@](c4cc(Cl)c(Cl)c(Cl)c4)(C(F)(F)F)C3)cc2Cl)CO1 (stereo partly drawn) [Compound A28, 2-chloro-N-(2-ethylsulfonylisoxazolidin-4-yl)-4-[(5S)-5-(3,4,5-trichlorophenyl)-5-(trifluoromethyl)-4H-isoxazol-3-yl]benzamide]
≥ 80%: mortality at 200 ppm (Thrips tabaci) | mortality at 200 ppm (Spodoptera littoralis [1]) | mortality at 200 ppm (Myzus persicae) | percent control (mortality, anti-feedant effect or growth inhibition) at 12.5 ppm (Spodoptera littoralis [2]) | mortality at 200 ppm (Tetranychus urticae) | percent effect (mortality or growth inhibition) at 200 ppm (Diabrotica balteata) | percent effect (mortality or growth inhibition) at 200 ppm (Plutella xylostella)

O=C(NC1CON(S(=O)(=O)C2CC2)C1)c1ccc(C2=NO[C@@](c3cc(Cl)c(Cl)c(Cl)c3)(C(F)(F)F)C2)cc1Cl (stereo partly drawn) [Compound A30, 2-chloro-N-(2-cyclopropylsulfonylisoxazolidin-4-yl)-4-[(5S)-5-(3,4,5-trichlorophenyl)-5-(trifluoromethyl)-4H-isoxazol-3-yl]benzamide]
≥ 80%: mortality at 200 ppm (Thrips tabaci) | mortality at 200 ppm (Spodoptera littoralis [1]) | mortality at 200 ppm (Myzus persicae) | percent control (mortality, anti-feedant effect or growth inhibition) at 12.5 ppm (Spodoptera littoralis [2]) | mortality at 200 ppm (Tetranychus urticae) | percent effect (mortality or growth inhibition) at 200 ppm (Diabrotica balteata) | percent effect (mortality or growth inhibition) at 200 ppm (Plutella xylostella)

Cc1cc(C2=NO[C@@](c3cc(Cl)c(Cl)c(Cl)c3)(C(F)(F)F)C2)ccc1C(=O)NC1CON(S(=O)(=O)N(C)C)C1 (stereo partly drawn) [Compound A31, N-[2-(dimethylsulfamoyl)isoxazolidin-4-yl]-2-methyl-4-[(5S)-5-(3,4,5-trichlorophenyl)-5-(trifluoromethyl)-4H-isoxazol-3-yl]benzamide]
≥ 80%: mortality at 200 ppm (Thrips tabaci) | mortality at 200 ppm (Spodoptera littoralis [1]) | mortality at 200 ppm (Myzus persicae) | percent control (mortality, anti-feedant effect or growth inhibition) at 12.5 ppm (Spodoptera littoralis [2]) | mortality at 200 ppm (Tetranychus urticae) | percent effect (mortality or growth inhibition) at 200 ppm (Diabrotica balteata) | percent effect (mortality or growth inhibition) at 200 ppm (Plutella xylostella)

CN(C)S(=O)(=O)N1CC(NC(=O)c2ccc(C3=NO[C@@](c4cc(Cl)c(Cl)c(Cl)c4)(C(F)(F)F)C3)cc2Cl)CO1 (stereo partly drawn) [Compound A32, 2-chloro-N-[2-(dimethylsulfamoyl)isoxazolidin-4-yl]-4-[(5S)-5-(3,4,5-trichlorophenyl)-5-(trifluoromethyl)-4H-isoxazol-3-yl]benzamide]
≥ 80%: mortality at 200 ppm (Thrips tabaci) | mortality at 200 ppm (Spodoptera littoralis [1]) | mortality at 200 ppm (Myzus persicae) | percent control (mortality, anti-feedant effect or growth inhibition) at 12.5 ppm (Spodoptera littoralis [2]) | mortality at 200 ppm (Tetranychus urticae) | percent effect (mortality or growth inhibition) at 200 ppm (Diabrotica balteata) | percent effect (mortality or growth inhibition) at 200 ppm (Plutella xylostella)
